{"source": "patent US20250289897A1", "about": "“LEPTIN RECEPTOR AGONISTIC ANTIBODY AS MONO OR COMBO THERAPIES TO TREAT OBESITY” (ELI LILLY AND COMPANY, priority 2024, published 2025)", "tested_on": "canine-LEPR", "assay": "STAT3-luciferase reporter assay in HEK293-STAT3Luc-dLepR7 cells", "type": "cell-based, Canis lupus", "excerpt": "LEPR is a cell surface single-pass transmembrane receptor. Activation of LEPR leads to phosphorylation of intracellular STAT3 (pSTAT3) and subsequent target gene transcription. To measure LEPR activation by anti-LEPR antibodies in the present disclosure, five independent STAT-luciferase reporter cell lines were established by introducing DNA plasmids encoding full-length LEPR of different species and STAT3-luciferase reporter gene into HEK293 cells (Table 4). […]\nBefore plating the cells for luciferase assays, the poly-D-Lysine coated 96-well plates (Corning Inc, #354651) were rinsed once with phosphate buffered solution (PBS). […] Cell lysing and One-Glo luciferase substrate solution (Promega, #E6120) were then added to each well, and relative luciferase units (RLUs) were measured on a ClarioStar plate reader. For each reporter cell line, positive control LEPR activation was calculated as the average RLUs stimulated by 20 nM recombinant human leptin protein (SEQ ID NO:27) minus the average RLUs of unstimulated cells and was set as maximum LEPR activation (100%). […]", "data": [{"substance": "human leptin: recombinant human leptin protein (SEQ ID NO:27), positive control", "values": [{"measurement": "EC50", "setting": "STAT3-luciferase, 20 hours, read-out: EC50 (nM) ± SEM", "value": "0.582 ± 0.172", "unit": "nM"}, {"measurement": "Agonism (%) ± SEM", "setting": "top of fitted curve vs response to 20 nM recombinant human leptin", "value": 107.5, "unit": "%"}]}]}
